According to the RepoRT retention time repository:

Assay: HILIC, Waters Atlantis Premier BEH Z-HILIC, 100 × 2.1 mm, 1.7 µm, 40 °C, 0.15 mL/min, estimated dead time 1.5 min; A: water + 20 mM ammonium carbonate + 5 µM medronic acid; B: 10% water + 90% acetonitrile + 2 mM ammonium carbonate + 0.5 µM medronic acid; gradient (min/%B) 0/95 18/55 18.1/20 21.5/20 22/95 23.5/95 25.5/95
Settings: stereoisomer not certain
An LC retention time of 8.94 min was found for `O=C(O)CCC(=O)C(=O)O` [2-Oxoglutaric acid] in this work. An LC retention time of 9.45 min was found for `O=C(O)CCC(O)C(=O)O` (configuration not stated) [2-hydroxy glutaric acid] in this work. An LC retention time of 11.3 min was found for `Nc1ncnc2c1ncn2C1OC(COP(=O)(O)OP(=O)(O)O)C(O)C1O` (configuration not stated) [ADP] in this work. An LC retention time of 9.36 min was found for `Nc1ncnc2c1ncn2C1OC(COP(=O)(O)O)C(O)C1O` (configuration not stated) [AMP] in this work. An LC retention time of 13.2 min was found for `Nc1ncnc2c1ncn2C1OC(COP(=O)(O)OP(=O)(O)OP(=O)(O)O)C(O)C1O` (configuration not stated) [ATP] in this work. An LC retention time of 10.1 min was found for `CC(=O)SCCNC(=O)CCNC(=O)C(O)C(C)(C)COP(=O)(O)OP(=O)(O)OCC1OC(n2cnc3c(N)ncnc32)C(O)C1OP(=O)(O)O` (configuration not stated) [Acetyl-CoA] in this work. An LC retention time of 4.11 min was found for `Nc1ncnc2c1ncn2C1OC(CO)C(O)C1O` (configuration not stated) [Adenosine] in this work. An LC retention time of 19.3 min was found for `NC(N)=NCCCC(N)C(=O)O` (configuration not stated) [Arginine] in this work. An LC retention time of 4.5 min was found for `O=C(O)CCCCC1SCC2NC(=O)NC21` (configuration not stated) [Biotin] in this work. An LC retention time of 9.85 min was found for `C[N+](C)(C)CC(O)CC(=O)[O-]` (configuration not stated) [Carnitine] in this work. An LC retention time of 13.8 min was found for `O=C(O)CC(O)(CC(=O)O)C(=O)O` [Citric acid] in this work. An LC retention time of 11.8 min was found for `CC(C)(COP(=O)(O)OP(=O)(O)OCC1OC(n2cnc3c(N)ncnc32)C(O)C1OP(=O)(O)O)C(O)C(=O)NCCC(=O)NCCS` (configuration not stated) [CoenzymeA] in this work. An LC retention time of 7.24 min was found for `Cc1cc2nc3c(=O)[nH]c(=O)nc-3n(CC(O)C(O)C(O)COP(=O)(O)OP(=O)(O)OCC3OC(n4cnc5c(N)ncnc54)C(O)C3O)c2cc1C` (configuration not stated) [FAD] in this work. An LC retention time of 11.3 min was found for `O=C(CO)C(O)C(O)C(O)COP(=O)(O)O` (configuration not stated) [Fructose 6-phosphate] in this work. An LC retention time of 15.5 min was found for `O=P(O)(O)OCC1OC(O)(COP(=O)(O)O)C(O)C1O` (configuration not stated) [Fructose-1,6-bisphosphate] in this work. An LC retention time of 15.7 min was found for `Nc1nc2c(ncn2C2OC(COP(=O)(O)OP(=O)(O)OP(=O)(O)O)C(O)C2O)c(=O)[nH]1` (configuration not stated) [GTP] in this work. An LC retention time of 12.3 min was found for `O=P(O)(O)OCC1OC(O)C(O)C(O)C1O` (configuration not stated) [Glucose-6-phosphate] in this work. An LC retention time of 9.67 min was found for `NC(CCC(=O)O)C(=O)O` (configuration not stated) [Glutamic acid] in this work. An LC retention time of 10.3 min was found for `NC(=O)CCC(N)C(=O)O` (configuration not stated) [Glutamine] in this work. An LC retention time of 10.2 min was found for `O=P(O)(O)OCC(O)CO` (configuration not stated) [Glycerol-3-phosphate] in this work. An LC retention time of 7.63 min was found for `OCC1OC(O)C(O)C(O)C1O` (configuration not stated) [Hexose] in this work. An LC retention time of 13.5 min was found for `O=C(O)CC(C(=O)O)C(O)C(=O)O` (configuration not stated) [Isocitric acid] in this work. An LC retention time of 6.42 min was found for `CCC(C)C(N)C(=O)O` (configuration not stated) [Isoleucine] in this work. An LC retention time of 3.43 min was found for `CC(O)C(=O)O` (configuration not stated) [Lactic Acid] in this work. An LC retention time of 6.03 min was found for `CC(C)CC(N)C(=O)O` (configuration not stated) [Leucine] in this work. An LC retention time of 19.5 min was found for `NCCCCC(N)C(=O)O` (configuration not stated) [Lysine] in this work. An LC retention time of 8.54 min was found for `NC(=O)C1=CN(C2OC(COP(=O)(O)OP(=O)(O)OCC3OC(n4cnc5c(N)ncnc54)C(O)C3O)C(O)C2O)C=CC1` (configuration not stated) [NADH] in this work. An LC retention time of 13.7 min was found for `NC(=O)C1=CN(C2OC(COP(=O)(O)OP(=O)(O)OCC3OC(n4cnc5c(N)ncnc54)C(OP(=O)(O)O)C3O)C(O)C2O)C=CC1` (configuration not stated) [NADPH] in this work. An LC retention time of 13.2 min was found for `NC(=O)c1ccc[n+](C2OC(COP(=O)(O)OP(=O)(O)OCC3OC(n4cnc5c(N)ncnc54)C(OP(=O)(O)O)C3O)C(O)C2O)c1` (configuration not stated) [NADP] in this work. An LC retention time of 10.2 min was found for `NC(=O)c1ccc[n+](C2OC(COP(=O)(O)OP(=O)(O)OCC3OC(n4cnc5c(N)ncnc54)C(O)C3O)C(O)C2O)c1` (configuration not stated) [NAD] in this work. An LC retention time of 13.3 min was found for `C=C(OP(=O)(O)O)C(=O)O` [PEP] in this work. An LC retention time of 12.4 min was found for `O=C(O)C(CO)OP(=O)(O)O` (configuration not stated) [Phosphoglyceric acid A] in this work. An LC retention time of 9.51 min was found for `O=C(O)CCC(=O)O` [Succinic Acid] in this work. An LC retention time of 10.2 min was found for `O=C(CO)COP(=O)(O)O` [Triose phosphate] in this work. An LC retention time of 9.78 min was found for `CC(=O)NC1C(OP(=O)(O)OP(=O)(O)OCC2OC(n3ccc(=O)[nH]c3=O)C(O)C2O)OC(CO)C(O)C1O` (configuration not stated) [UDP-GlcNAc] in this work. An LC retention time of 6.52 min was found for `CCC(=O)OC(CC(=O)[O-])C[N+](C)(C)C` (configuration not stated) [carnitine-C3] in this work. An LC retention time of 4.59 min was found for `O=C1CC(C(=O)O)NC(=O)N1` (configuration not stated) [dihydroorotic acid] in this work.
